Source: patent US20170304355A1, “COMPOSITIONS AND METHODS OF USE THEREOF” (priority 2014, published 2017)
Where two headings read alike, the source gives them in different places. One block for each compound: values may come before it.

Legend:
[1] = tested on: mupirocin-resistant MRSA strains 2-4C and 2-9A; assay: Time-kill assay (vCFU), PAAG and mupirocin; type: cell-based, Staphylococcus aureus; settings: 24-hours
Description: (§1) Checkerboard and time kill bactericidal studies of mupriocin, methicillin-resistant Staphylococcus aureus strains 2-4C and 2-9A were completed as part of the synergy studies to evaluate potentiation of […] by PAAG (25% functionalized, 43 kDa). Synergistic relationships between PAAG and oxacillin were examined in vitro using the broth microdilution checkerboard assay in 96-well microtiter plates. Serial two-fold dilutions of PAAG and oxacillin were placed in each well with approximately 1×10^5 CFU/ml of S. aureus. Each plate was incubated 20 hours. The MIC was determined as the lowest concentration where no visible bacterial growth was observed. […] Controls for bacterial growth and sterility were included. The FIC for each strain was calculated. The FIC is an interaction coefficient indicating whether the combined inhibitory/bacteristatic effect of drugs is synergistic (FIC of 0.5 or less), additive ([…]), or antagonistic (FIC>4). The FIC is =A+B, where: A=(MIC of X with Y)/(MIC of drug X alone) and B=(MIC of Y with X)/(MIC of drug Y alone). The time-kill assay (vCFU) was performed using the microdilution technique. Approximately 1×10^5 CFU/ml of each bacteria tested was tested against mupriocin alone and in combination. Concentrations of PAAG tested were ½-⅛×MIC. The vCFU was determined after 24 hours treatment using the microtiter technique (8).

[2] = tested on: MRSA; assay: Broth microdilution checkerboard assay, PAAG and oxacillin; type: cell-based, Staphylococcus aureus; settings: for MIC: Staphylococcus aureus, MRSA
Description: as §1

[3] = tested on: P. aeruginosa strain PA01; assay: Checkerboard assay, various PAAG's and tobramycin; type: cell-based; settings: Pseudomonas aeruginosa
[4] = tested on: P. aeruginosa strain SUS116; assay: Minimal Biofilm Inhibitory Concentration (MBIC) assay; type: cell-based; settings: for MBIC Tobramycin: alone
Description: (§2) Each isolate was taken from the −80° C. freezer stock and grown for approximately 20 hours in LB Broth at 37° C. shaking water bath. […] The antibiotics and PAAG (22.4% functionalization, 36.9 kDa, 89.74 DDA, 1.63 PDI) were prepared similar to a checkerboard assay (2× concentration to accommodate addition of culture) in MH broth, in a sterile flat-bottomed 96-well plate. For MRSA strain SA5, the PAAG concentrations tested were 0-128 ug/ml. The vancomycin concentrations tested were 0-4 ug/ml. […] The tobramycin concentrations tested were 0-4 ug/ml. Plates were incubated in a 37° C. incubator.
(§3) The fractional inhibitory concentration (FIC) was calculated as; FIC calculation: […]
(§4) and the FIC relationship was defined as; Synergy: FIC≦0.5; Additive: 0.5<FIC≦1.0; or Indifferent: FIC>1.0.

[5] = tested on: clinical isolates of P. aeruginosa; assay: Checkerboard assay, PAAG and tobramycin; type: cell-based; settings: Pseudomonas aeruginosa
Description: Two independent checkerboard assays screened 64 unique combinations of antimicrobial concentrations in duplicate. […] Bacteria were incubated at 37° C. for 20 hours. The MIC was determined as the lowest concentration with no visible bacterial growth observed.

[6] = tested on: MRSA strain SA5; assay: Minimal Biofilm Inhibitory Concentration (MBIC) assay; type: cell-based, Staphylococcus aureus
Description: as §2, §3, §4

SMILES: C/C(=C\C(=O)OCCCCCCCCC(=O)O)C[C@@H]1OC[C@H](C[C@@H]2O[C@H]2[C@@H](C)[C@H](C)O)[C@@H](O)[C@H]1O [Mup, mupirocin]
Log10 reduction (CFU/ml) ([1]; strain 2-4C, Mup 8 μg/ml alone): 0 Log10 CFU/ml
Log10 reduction (CFU/ml) ([1]; strain 2-9A, Mup 4 μg/ml alone): 0 Log10 CFU/ml

SMILES: Cc1onc(-c2ccccc2)c1C(=O)N[C@@H]1C(=O)N2[C@@H]1SC(C)(C)[C@@H]2C(=O)O [OXA, oxacillin]
MIC ([2]; all strains, alone, read-out: MIC oxacillin): ≥ 4 µg/mL
MIC ([2]; strain 2-1A, alone, read-out: MIC OXA): 8 µg/mL
MIC ([2]; strain 2-1A, read-out: MIC OXA with PAAG): 1 µg/mL
MIC ([2]; strain 2-4C, alone, read-out: MIC OXA): 16 µg/mL
MIC ([2]; strain 2-4C, read-out: MIC OXA with PAAG): 2 µg/mL
MIC ([2]; strain 2-9A, alone, read-out: MIC OXA): 8 µg/mL
MIC ([2]; strain 2-9A, read-out: MIC OXA with PAAG): 0.5 µg/mL
MIC ([2]; strain MW-2, alone, read-out: MIC OXA): 4 µg/mL
MIC ([2]; strain MW-2, read-out: MIC OXA with PAAG): 1 µg/mL
MIC ([2]; strain SA05, alone, read-out: MIC OXA): 4 µg/mL
MIC ([2]; strain SA05, read-out: MIC OXA with PAAG): 1 µg/mL
MIC of oxacillin after addition of PAAG (susceptible range) ([2]; all strains, PAAG at 2, 8 or 16 μg/ml): ≥ 2 µg/mL

MIC ([3]; PA01, alone, assay run with PAAG^1, read-out: MIC Tobramycin): 1 µg/mL
MIC ([3]; PA01, alone, assay run with PAAG^2, read-out: MIC Tobramycin): 0.5 µg/mL
MIC ([3]; PA01, alone, assay run with PAAG^3, read-out: MIC Tobramycin): 0.5 µg/mL
MIC ([3]; PA01, with PAAG^1 (27%, 32 kDa), read-out: MIC Tobramycin (with PAAG)): 0.031 µg/mL
MIC ([3]; PA01, with PAAG^2 (31%, 54 kDa), read-out: MIC Tobramycin (with PAAG)): 0.031 µg/mL
MIC ([3]; PA01, with PAAG^3 (25%, 40 kDa), read-out: MIC Tobramycin (with PAAG)): 0.063 µg/mL
MIC ([5]; strain AMT-32-4, alone, read-out: MIC Tobramycin): 0.31 µg/mL
MIC ([5]; strain AMT-32-4, read-out: MIC Tobramycin (with PAAG)): 0.13 µg/mL
MIC ([5]; strain MR29, alone, read-out: MIC Tobramycin): 0.31 µg/mL
MIC ([5]; strain MR29, read-out: MIC Tobramycin (with PAAG)): 0.25 µg/mL
MIC ([5]; strain MR 51, alone, read-out: MIC Tobramycin): 0.31 µg/mL
MIC ([5]; strain MR 51, read-out: MIC Tobramycin (with PAAG)): 0.13 µg/mL
MIC ([5]; strain PA01, alone, read-out: MIC Tobramycin): 0.31 µg/mL
MIC ([5]; strain PA01, read-out: MIC Tobramycin (with PAAG)): 0.13 µg/mL
MIC ([5]; strain SUS 116, alone, read-out: MIC Tobramycin): 1.25 µg/mL
MIC ([5]; strain SUS 116, read-out: MIC Tobramycin (with PAAG)): 0.13 µg/mL
SMILES: NC[C@H]1O[C@H](O[C@H]2[C@H](O)[C@@H](O[C@H]3O[C@H](CO)[C@@H](O)[C@H](N)[C@H]3O)[C@H](N)C[C@@H]2N)[C@H](N)C[C@@H]1O [Tobramycin]
MBIC Tobramycin ([4]; PAAG and tobramycin table (TABLE 2)): 6.25 µg/mL
MBIC Tobramycin ([4]; column of the PAAG and aztreonam table (TABLE 1)): 2 µg/mL
MBIC Tobramycin (with PAAG) ([4]; in combination with PAAG): 2 µg/mL

SMILES: CN[C@H](CC(C)C)C(=O)N[C@H]1C(=O)N[C@@H](CC(N)=O)C(=O)N[C@H]2C(=O)N[C@H]3C(=O)N[C@H](C(=O)N[C@H](C(=O)O)c4cc(O)cc(O)c4-c4cc3ccc4O)[C@H](O)c3ccc(c(Cl)c3)Oc3cc2cc(c3O[C@@H]2O[C@H](CO)[C@@H](O)[C@H](O)[C@H]2O[C@H]2C[C@](C)(N)[C@H](O)[C@H](C)O2)Oc2ccc(cc2Cl)[C@H]1O [Vancomycin]
MBIC Vancomycin ([6]; alone): 2 µg/mL
MBIC Vancomycin (with PAAG) ([6]; in combination with PAAG): 1 µg/mL

SMILES: C[C@H]1[C@H](NC(=O)/C(=N\OC(C)(C)C(=O)O)c2csc(N)n2)C(=O)N1S(=O)(=O)O [Aztreonam]
MBIC Aztreonam (with PAAG) ([4]; in combination with PAAG): 0.06 µg/mL
